Source: patent publication US5760034A, “Heterocyclic substituted naphthyridinones and methods and compositions employing them” (Schering Corporation, priority 1992, dated 1998)

Tests used:
SRS-A release = test: inhibition of leukotriene (SRS-A) release in vitro, lung fragments of sensitized guinea pigs challenged with ovalbumin; format: cell-based; conditions: 12 min preincubation, 20 μg/ml ovalbumin challenge 15 min; for inhibition at 10 µM: Cavia porcellus, guinea pig lung fragments
Description: In one such test procedure, the anti-allergy method of this invention is identified by tests which measure a compound's inhibition of leukotriene release in sensitized guinea pigs. Male Hartley guinea pigs (250-300 g) are sensitized with 5 mg ovalbumin injected i.p. and 5 mg injected s.c. in 1 ml saline on day 1 and 5 mg ovalbumin injected i.p. on day 4. The sensitized animals are used 3-4 weeks later at which time they weigh 450-500 g. Sensitized guinea pigs are killed by a blow to the head and the lungs removed and cleaned of visible connective tissue, trachea and large blood vessels. The lungs from individual animals are sliced into fragments approximately 1 mm in thickness using a McIlwain tissue chopper and then washed with oxygenated Tyrode's buffer. Weighed aliquots (approximately 400 mg wet weight) of lung are transferred into vials containing 2 ml of fresh Tyrode's solution (containing 10 mM cysteine) and incubated in the presence or absence of test compound for 12 min at 37° C. The tissues are then challenged with 20 μg ovalbumin/ml (final concentration) and incubated for 15 min.
To measure leukotriene release, an aliquot of supernatant fluid is extracted with 4 volumes of 100% ethanol. After removal of the precipitated protein, the leukotriene content is measured by a radioimmunoassay using [^3 H]LTC4 and antiserum obtained from New England Nuclear. […] Percent inhibition of lekotriene release is calculated by comparing for each lung the release in the presence of the test compound to that in the absence of test compound.

sensitized guinea pigs = test: suppression of anaphylactic bronchospasm in ovalbumin-sensitized guinea pigs; format: in vivo, guinea pig; conditions: 5 mg/kg, orally 2 hours before ovalbumin challenge; peak increase in intratracheal pressure within 15 minutes vs vehicle
Description: Male Hartley guinea pigs (250-300 g) are sensitized with 5 mg ovalbumin injected i.p. and 5 mg injected s.c. in 1 ml saline on day 1 and 5 mg ovalbumin injected i.p. on day 4. The sensitized animals are used 3-4 weeks later at which time they weigh 450-500 g. The sensitized guinea pigs are fasted overnight and the following morning are anesthetized with 0.9 ml/kg i.p. of dialurethane (0.1 g/ml diallylbarbituric acid, 0.4 g/ml ethylurea and 0.4 g/ml urethane). The trachea are cannulated and the animals are ventilated by a Harvard® rodent respirator at 50 strokes/minute with a stroke volume of 5 ml. A side arm to the tracheal cannula is connected to a pressure transducer (Harvard) to obtain a continuous measure of intratracheal pressure which is recorded on a polygraph (Harvard). The jugular vein is cannulated for the i.v. administration of substances. The sensitized guinea pigs are injected i.v. with 1 mg/kg propranolol, 5 mg/kg indomethacin and 2 mg/kg mepyramine given together in a volume of 1 ml/kg. […] Bronchoconstriction is measured as the peak increase in intratracheal pressure occurring within 15 minutes after antigen challenge.
Test compounds are administered orally 2 hours before challenge with ovalbumin. Suppression of anaphylactic bronchospasm is expressed as a percent inhibition of the peak increase in intratracheal pressure by comparison to a vehicle-treated control group.

Compound	inhibition at 10 µM (SRS-A release) [%]	Inhibition of anaphylactic bronchospasm, % Inhibition (sensitized guinea pigs) [%]	Inhibition of SRS-A release in vitro - Guinea Pig Lung 10 μM (SRS-A release) [%]
O=c1c(N2CCOCC2)cc2cccnc2n1-c1ccccc1 [3-(4-Morpholinyl)-1-phenyl-1,8-naphthyridin-2(1H )-one]	65	93	
3-[1,2-Dihydro-3-(4-morpholinyl)-2-oxo-1,8-naphthyridin-1-yl]benzonitrile			66
N#Cc1cccc(-n2c(=O)c(N3CCCC3)cc3cccnc32)c1 [3-(1-Pyrrolidinyl)-1-(3-cyanophenyl)-1,8-naphthyridin-2-(1H )-one]	43		
O=c1c(N2CCCC2)cc2cccnc2n1-c1cccc(C(F)(F)F)c1 [3-(1-pyrrolidinyl)-1-(3-trifluoromethylphenyl)-1,8-naphthyridin-2(1H)-one]	46		
3-[3-(Hexahydro-1H-azepin-1-yl)-1,2-dihydro-2-oxo-1,8-naphthyridin-1-yl]-benzo-nitrile			46
O=c1c(N2CCCC2)cc2cccnc2n1-c1ccccc1 [3-(1-pyrrolidinyl)-1-phenyl-1,8-naphthyridin-2(1H)-one]	34	61	
